Results from patent US5493007A, “Platelet aggregation inhibitors having high specificity for GPIIBIIIA” (Genentech, Inc., priority 1994, dated 1996).
*1 amine or outer side, *2 acyl side, *3 side chain or, on linkers, in order; H or OH if unused. Where a SMILES comes first, the peptide text is derived from it. Bridges are numbered along the chain shown (N, C = ends). [ ]: non-standard residue; d: D form. The star is where a group is joined. Ethylenediamine = C(CN[*:2])N[*:1]; Aad = N[C@@H](CCCC(=O)O)C(=O)O; Pen = CC(C)(S)[C@H](N)C(=O)O; dOrn = NCCC[C@@H](N)C(=O)O; Orn = NCCC[C@H](N)C(=O)O; NH(CH2)5NH2 = NCCCCCN*; NH(CH2)4NH2 = NCCCCN*; NH(CH2)3NH2 = NCCCN*; Ava = NCCCCC(=O)O

Each compound was assayed against T1, Vitronectin Receptor (αvβ3) (Homo sapiens, UniProt P05106+P06756) (assay: Human Vitronectin-Vitronectin Receptor (αvβ3) ELISA Assay). Conditions: purified human αvβ3, vitronectin-coated plates; read-out: ELISA IC50 Vitronectin VnR.
T1 construct: Human vitronection receptor (VnR) is purified from human placenta; from tissue; host or cells: human placenta
T1 sequence (P06756 31-889 limits assumed): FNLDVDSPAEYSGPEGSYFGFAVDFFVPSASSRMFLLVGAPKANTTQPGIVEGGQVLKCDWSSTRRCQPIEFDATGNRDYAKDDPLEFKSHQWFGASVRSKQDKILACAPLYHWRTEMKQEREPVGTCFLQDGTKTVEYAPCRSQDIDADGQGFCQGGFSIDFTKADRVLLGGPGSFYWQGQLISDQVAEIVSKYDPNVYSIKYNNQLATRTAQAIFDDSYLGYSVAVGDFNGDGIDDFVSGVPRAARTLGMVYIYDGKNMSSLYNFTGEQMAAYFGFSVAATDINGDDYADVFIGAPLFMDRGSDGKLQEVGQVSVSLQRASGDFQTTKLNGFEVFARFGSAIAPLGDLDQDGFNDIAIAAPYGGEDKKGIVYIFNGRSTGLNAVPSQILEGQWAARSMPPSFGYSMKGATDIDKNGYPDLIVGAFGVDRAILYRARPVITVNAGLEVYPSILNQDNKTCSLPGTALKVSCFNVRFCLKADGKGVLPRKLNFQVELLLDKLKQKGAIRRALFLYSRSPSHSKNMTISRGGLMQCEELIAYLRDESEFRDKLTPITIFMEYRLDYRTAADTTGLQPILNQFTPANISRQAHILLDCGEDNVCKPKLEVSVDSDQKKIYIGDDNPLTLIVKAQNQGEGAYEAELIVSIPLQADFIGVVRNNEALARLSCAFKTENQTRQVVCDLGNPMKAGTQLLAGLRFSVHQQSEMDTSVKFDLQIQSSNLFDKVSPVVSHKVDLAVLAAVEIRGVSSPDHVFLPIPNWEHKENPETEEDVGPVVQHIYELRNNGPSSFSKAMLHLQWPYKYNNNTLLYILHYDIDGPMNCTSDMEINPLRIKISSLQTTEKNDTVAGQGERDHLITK
T1 sequence (P06756 891-1048 partner limits assumed): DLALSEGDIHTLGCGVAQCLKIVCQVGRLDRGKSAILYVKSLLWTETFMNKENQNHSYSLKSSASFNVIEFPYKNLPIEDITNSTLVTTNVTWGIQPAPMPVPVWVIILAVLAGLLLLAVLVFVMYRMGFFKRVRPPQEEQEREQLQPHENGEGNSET
T1 sequence (P05106 27-788): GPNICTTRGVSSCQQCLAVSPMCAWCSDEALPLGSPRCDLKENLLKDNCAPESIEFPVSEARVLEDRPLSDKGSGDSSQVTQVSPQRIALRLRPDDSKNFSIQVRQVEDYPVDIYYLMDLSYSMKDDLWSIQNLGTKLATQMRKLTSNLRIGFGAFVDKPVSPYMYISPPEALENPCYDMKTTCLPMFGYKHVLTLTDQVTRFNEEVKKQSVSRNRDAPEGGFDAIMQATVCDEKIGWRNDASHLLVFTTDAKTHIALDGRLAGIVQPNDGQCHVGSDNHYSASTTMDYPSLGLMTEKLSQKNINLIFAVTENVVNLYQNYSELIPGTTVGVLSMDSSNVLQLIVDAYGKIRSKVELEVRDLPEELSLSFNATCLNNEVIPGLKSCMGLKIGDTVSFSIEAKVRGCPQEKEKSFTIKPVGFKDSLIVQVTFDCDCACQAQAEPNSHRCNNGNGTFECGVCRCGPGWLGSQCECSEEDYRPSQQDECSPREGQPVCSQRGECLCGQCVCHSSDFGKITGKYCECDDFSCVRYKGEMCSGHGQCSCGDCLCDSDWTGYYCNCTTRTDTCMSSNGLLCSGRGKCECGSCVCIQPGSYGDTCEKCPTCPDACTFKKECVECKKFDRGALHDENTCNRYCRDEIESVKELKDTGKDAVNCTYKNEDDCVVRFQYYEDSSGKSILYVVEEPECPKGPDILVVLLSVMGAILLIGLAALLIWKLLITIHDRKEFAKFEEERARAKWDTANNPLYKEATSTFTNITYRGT
Format: binding
Text: Human vitronectin (Vn) is isolated from human plasma and purified by affinity chromatography by the method of Yatohgo et. al., (Cell Structure and Function 13:281-292 [1988]).
Human vitronection receptor (VnR) is purified from human placenta by the method of Pytela et al., (Methods Enzymol., 144:475 [1987]). Alternatively the αvβ3 receptor can be purified from some cell lines (e.g., human embryonic kidney 293 cells) transfected with DNA sequences for both the αv and β3 subunits. The subunits are purified by employing octylglucoside extraction followed by Con-A, Heparin-Sepharose, and S-300 Chromatography.
Anti-GP IIb IIIa monoclonal antibodies specific for human GP IIIa are prepared by the method of Newman et al. (Blood, 65:227-232 [1985]), or a similar procedure. This mouse Mab is specific for the β3 subunit of the vitronectin receptor.
Rabbit Fab 2 anti-mouse Fc fragment horse radish peroxidase conjugate (anti-MuFc HRP) is obtained from PelFreeze (cat. no. 715305-1).
Maxisorp microtiter plates are coated with 2 μg/ml human vitronectin dissolved in PBS ([…]) and stored overnight at 4° C. The plates are washed two times with PBS-0.05% Tween-20 (wash buffer) and blocked by incubating with about 150 μl/well of assay buffer (1%, BSA [RIA grade or better] in 50 mM Tris-HCl, 100 mM NaCl, 1 mM MgCl2, CaCl2, MnCl2 pH 7.4) for 60 minutes. Dilutions of standards are prepared and putative inhibitors (Table 3) are dissolved in assay buffer. The blocked plates are emptied and 25 μl/well of inhibitor or standard solution is added to each well. Twenty-five μl of a 30 μg/ml solution of purified αvβ3 in assay buffer is pipetted into the coated plate. The final concentration of receptor in the assay well is about 15 μg/ml. The plate is incubated on a shaker for 60 minutes. Meanwhile, for each microtite plate, 6 ml buffer solution containing 1.5 μg/ml of mouse monoclonal antibody specific for β3 is prepared. To this solution is added μl of the secondary antibody, which is anti-mouse-Fc-HRP antibody conjugate. For example, for one plate, prepare 6 ml of a 1.5 μg/ml mouse Mab solution to which is added 1 μl of anti-mouse-Fc-HRP antibody stock, (this represents a 1:6000 dilution of the antibody - HRP conjugate). This mixture is allowed to incubate during the receptor-inhibitor incubation. The assay plates are washed 4 times with PBS-Tween and 50 μl/well of the antibody mixture is then pipetted into the plate for a 60 minute incubation. The plate is washed 4 times and the color reaction is developed with 50 μl/well of 0.67 mg/ml o-phenyldiamine in PBS containing 0.012% H2 O2. Alternatively, 16 mM citric acid, 50 mM Na2 PO4 at pH 5.0 can be used as a substrate buffer. The reaction is stopped with 50 μl/well 1M H2 SO4. The plates are read at 492-405 nm and the data analyzed by four-parameter fit.

| Structure (SMILES) | IC50 [nM] |
| --- | --- |
| N=C(N)NCCC[C@@H]1NC(=O)[C@@H](Cc2ccc(O)cc2)NC(=O)C(CCCCN)SC[C@@H](C(=O)O)NC(=O)[C@H](CC(=O)O)NC(=O)CNC1=O (single isomer, unassigned) [9/10, cyclo-S-2-L-(6-aminocaproyl)-Lys--dTyr--Arg--Gly--Asp--Cys--OH] | 9.6 |
| N=C(N)NCCC[C@@H]1NC(=O)[C@@H](Cc2ccc(O)cc2)NC(=O)C(CCCCN)SC[C@@H](C(=O)O)NC(=O)[C@H](CC(=O)O)NC(=O)CNC1=O (single isomer, unassigned) [9/11, cyclo-S-2-L-(6-aminocaproyl)-Lys--dTyr--Arg--Gly--Asp--Cys--OH] | 11.2 |
| N=C(N)NCCC[C@H](NC(=O)[C@@H]1CSCC(=O)N[C@H](Cc2ccc(O)cc2)C(=O)N[C@@H](CCCNC(=N)N)C(=O)NCC(=O)N[C@@H](CC(=O)O)C(=O)N1)C(N)=O [7/1, cyclo-S-acetyl-dTyr--Arg--Gly--Asp--Cys--Arg--NH2] ({CH2CO}-[dY]RGDCR-NH2; thioether N-5) | 49 |
| N=C(N)NCCC[C@@H]1NC(=O)[C@@H](Cc2ccc(O)cc2)NC(=O)CSC[C@@H](C(=O)N[C@H](CCCNC(=N)N)C(N)=O)NC(=O)[C@H](CC(=O)O)NC(=O)CNC1=O [7/2, cyclo-S-acetyl-dTyr--Arg--Gly--Asp--Cys--dArg--NH2] ({CH2CO}-[dY]RGDC[dR]-NH2; thioether N-5) | 22 |
| N=C(N)NCCC[C@@H]1NC(=O)[C@@H](Cc2ccc(O)cc2)NC(=O)CSC[C@@H](C(=O)N[C@@H](CCCCN)C(N)=O)NC(=O)[C@H](CC(=O)O)NC(=O)CNC1=O [7/3, cyclo-S-acetyl-dTyr--Arg--Gly--Asp--Cys--Lys--NH2] ({CH2CO}-[dY]RGDCK-NH2; thioether N-5) | 60 |
| N=C(N)NCCC[C@@H]1NC(=O)[C@@H](Cc2ccc(O)cc2)NC(=O)CSC[C@@H](C(=O)N[C@H](CCCCN)C(N)=O)NC(=O)[C@H](CC(=O)O)NC(=O)CNC1=O [7/4, cyclo-S-acetyl-dTyr--Arg--Gly--Asp--Cys--dLys--NH2] ({CH2CO}-[dY]RGDC[dK]-NH2; thioether N-5) | 17 |
| N=C(N)NCCC[C@@H]1NC(=O)[C@@H](Cc2ccc(O)cc2)NC(=O)CSC[C@@H](C(=O)N[C@@H](CCCN)C(N)=O)NC(=O)[C@H](CC(=O)O)NC(=O)CNC1=O [7/5, cyclo-S-acetyl-dTyr--Arg--Gly--Asp--Cys--Orn--NH2] ({CH2CO}-[dY]RGDC[Orn]-NH2; thioether N-5) | 45 |
| N=C(N)NCCC[C@@H]1NC(=O)[C@@H](Cc2ccc(O)cc2)NC(=O)CSC[C@@H](C(=O)N[C@H](CCCN)C(N)=O)NC(=O)[C@H](CC(=O)O)NC(=O)CNC1=O [7/6, cyclo-S-acetyl-dTyr--Arg--Gly--Asp--Cys--dOrn--NH2] ({CH2CO}-[dY]RGDC[dOrn]-NH2; thioether N-5) | 55 |
| N=C(N)NCCC[C@H](NC(=O)[C@H](Cc1ccc(O)cc1)NC(=O)[C@@H]1CSCC(=O)N[C@H](Cc2ccc(O)cc2)C(=O)N[C@@H](CCCNC(=N)N)C(=O)NCC(=O)N[C@@H](CC(=O)O)C(=O)N1)C(N)=O [7/7, cyclo-S-acetyl-dTyr--Arg--Gly--Asp--Cys--Tyr--Arg--NH2] ({CH2CO}-[dY]RGDCYR-NH2; thioether N-5) | 51 |
| CC1(C)SCC(=O)N[C@H](Cc2ccc(O)cc2)C(=O)N[C@@H](CCCCN)C(=O)NCC(=O)N[C@@H](CC(=O)O)C(=O)N[C@@H]1C(=O)N[C@@H](CCCNC(=N)N)C(N)=O [7/16, cyclo-S-acetyl-dTyr--Lys--Gly--Asp--Pen--Arg--NH2] ({CH2CO}-[dY]KGD[Pen]R-NH2; thioether N-5) | 120000 |
| CC1(C)SCC(=O)N[C@H](Cc2ccc(O)cc2)C(=O)N[C@@H](CCCCN)C(=O)NCC(=O)N[C@@H](CC(=O)O)C(=O)N[C@@H]1C(=O)N[C@@H](CCCCN)C(N)=O [7/17, cyclo-S-acetyl-dTyr--Lys--Gly--Asp--Pen--Lys--NH2] ({CH2CO}-[dY]KGD[Pen]K-NH2; thioether N-5) | 100000 |
| N=C(N)NCCC[C@@H]1NC(=O)[C@@H](Cc2ccc(O)cc2)NC(=O)CSC[C@@H](C(=O)N[C@@H](CCC(N)=O)C(N)=O)NC(=O)[C@H](CC(=O)O)NC(=O)CNC1=O [7/27, cyclo-S-acetyl-dTyr--Arg--Gly--Asp--Cys--Gln--NH2] ({CH2CO}-[dY]RGDCQ-NH2; thioether N-5) | 49 |
| N=C(N)NCCC[C@@H]1NC(=O)[C@@H](Cc2ccc(O)cc2)NC(=O)CSC[C@@H](C(=O)NCCCCC(=O)O)NC(=O)[C@H](CC(=O)O)NC(=O)CNC1=O [7/28, cyclo-S-(1-5)-dTyr--Arg--Gly--Asp--Cys--X (X = aminovaleric acid)] ({CH2CO}-[dY]RGDC[Ava]-OH; thioether N-5) | 650 |
| N=C(N)NCCC[C@@H]1NC(=O)[C@@H](Cc2ccc(O)cc2)NC(=O)CSC[C@@H](C(=O)O)NC(=O)[C@H](CC(=O)O)NC(=O)CNC1=O [7/46, cyclo-S-acetyl-dTyr--Arg--Gly--Asp--Cys--OH] ({CH2CO}-[dY]RGDC-OH; thioether N-5) | 5 |
| N=C(N)NCCC[C@@H]1NC(=O)[C@@H](Cc2ccc(O)cc2)NC(=O)CSC[C@@H](C(=O)NCCCCN)NC(=O)[C@H](CC(=O)O)NC(=O)CNC1=O [8/12, cyclo-S-acetyl-dTyr--Arg--Gly--Asp--Cys--NH--X (X = butylamine)] ({CH2CO}-[dY]RGDC-{NH(CH2)4NH2}; thioether N-5) | 70 |
| N=C(N)NCCC[C@@H]1NC(=O)[C@@H](Cc2ccc(O)cc2)NC(=O)CSC[C@@H](C(=O)NCCCCCN)NC(=O)[C@H](CC(=O)O)NC(=O)CNC1=O [8/13, cyclo-S-acetyl-dTyr--Arg--Gly--Asp--Cys--NH--X (X = pentylamine)] ({CH2CO}-[dY]RGDC-{NH(CH2)5NH2}; thioether N-5) | 32 |
| N=C(N)NCCC[C@@H]1NC(=O)[C@@H](Cc2ccc(O)cc2)NC(=O)CSC[C@@H](C(=O)NCCCN)NC(=O)[C@H](CC(=O)O)NC(=O)CNC1=O [8/22, cyclo-S-acetyl-dTyr--Arg--Gly--Asp--Cys--NH--X (X = propyl amine)] ({CH2CO}-[dY]RGDC-{NH(CH2)3NH2}; thioether N-5) | 36 |
| N=C(N)NCCC[C@@H]1NC(=O)[C@@H](Cc2ccc(O)cc2)NC(=O)CSC[C@@H](C(=O)NCCN)NC(=O)[C@H](CC(=O)O)NC(=O)CNC1=O [8/23, cyclo-S-acetyl-dTyr--Arg--Gly--Asp--Cys--NH--X (X = ethyl amine)] ({CH2CO}-[dY]RGDC-Ethylenediamine; thioether N-5) | 35 |
| N=C(N)NCCC[C@H](NC(=O)[C@@H]1CCCC(=O)N[C@H](Cc2ccc(O)cc2)C(=O)N[C@@H](CCCNC(=N)N)C(=O)NCC(=O)N[C@@H](CC(=O)O)C(=O)N1)C(N)=O [10/19, cyclo(1-5)dTyr--Arg--Gly--Asp--L-α-aminoadipic acid-Arg--NH2] ([dY]RGD[Aad]R-NH2; lactam N-5) | 32 |
| N=C(N)NCCC[C@@H]1NC(=O)[C@@H](Cc2ccc(O)cc2)NC(=O)CCC[C@@H](C(=O)N[C@@H](CCCCN)C(N)=O)NC(=O)[C@H](CC(=O)O)NC(=O)CNC1=O [10/20, cyclo(1-5)dTyr--Arg--Gly--Asp--L-α-aminoadipic acid-Lys--NH2] ([dY]RGD[Aad]K-NH2; lactam N-5) | 20 |
